US9321776B2, “Isochromene derivatives as phoshoinositide 3-kinases inhibitors” (CHIESI FARMACEUTICI S.p.A., priority 2013, dated 2016)
Where a name gives a salt, the structure may show the parent alone.

Tests used:
Assay in all cases: PI3K enzyme inhibitory activity in the cell free assay (ADP-Glo Kinase Assay)
Format in all cases: biochemical
PI3Kα = target: T1, PI3Kα (Homo sapiens, UniProt P42336); details: human recombinant PI3Kα, ATP 50 μM; read-out: PI3K alpha inhibition
T1 construct: purchased Millipore Ltd (Billerica, Mass.)

PI3Kβ = target: T2, PI3Kβ (Homo sapiens, UniProt P42338); details: human recombinant PI3Kβ, ATP 100 μM; read-out: PI3K beta inhibition
T2 construct: purchased Millipore Ltd (Billerica, Mass.)

PI3Kδ = target: T3, PI3Kδ (Homo sapiens, UniProt O00329); details: human recombinant PI3Kδ, ATP 80 μM; read-out: PI3K delta inhibition
T3 construct: purchased Millipore Ltd (Billerica, Mass.)
T3 sequence (O00329 1-1044): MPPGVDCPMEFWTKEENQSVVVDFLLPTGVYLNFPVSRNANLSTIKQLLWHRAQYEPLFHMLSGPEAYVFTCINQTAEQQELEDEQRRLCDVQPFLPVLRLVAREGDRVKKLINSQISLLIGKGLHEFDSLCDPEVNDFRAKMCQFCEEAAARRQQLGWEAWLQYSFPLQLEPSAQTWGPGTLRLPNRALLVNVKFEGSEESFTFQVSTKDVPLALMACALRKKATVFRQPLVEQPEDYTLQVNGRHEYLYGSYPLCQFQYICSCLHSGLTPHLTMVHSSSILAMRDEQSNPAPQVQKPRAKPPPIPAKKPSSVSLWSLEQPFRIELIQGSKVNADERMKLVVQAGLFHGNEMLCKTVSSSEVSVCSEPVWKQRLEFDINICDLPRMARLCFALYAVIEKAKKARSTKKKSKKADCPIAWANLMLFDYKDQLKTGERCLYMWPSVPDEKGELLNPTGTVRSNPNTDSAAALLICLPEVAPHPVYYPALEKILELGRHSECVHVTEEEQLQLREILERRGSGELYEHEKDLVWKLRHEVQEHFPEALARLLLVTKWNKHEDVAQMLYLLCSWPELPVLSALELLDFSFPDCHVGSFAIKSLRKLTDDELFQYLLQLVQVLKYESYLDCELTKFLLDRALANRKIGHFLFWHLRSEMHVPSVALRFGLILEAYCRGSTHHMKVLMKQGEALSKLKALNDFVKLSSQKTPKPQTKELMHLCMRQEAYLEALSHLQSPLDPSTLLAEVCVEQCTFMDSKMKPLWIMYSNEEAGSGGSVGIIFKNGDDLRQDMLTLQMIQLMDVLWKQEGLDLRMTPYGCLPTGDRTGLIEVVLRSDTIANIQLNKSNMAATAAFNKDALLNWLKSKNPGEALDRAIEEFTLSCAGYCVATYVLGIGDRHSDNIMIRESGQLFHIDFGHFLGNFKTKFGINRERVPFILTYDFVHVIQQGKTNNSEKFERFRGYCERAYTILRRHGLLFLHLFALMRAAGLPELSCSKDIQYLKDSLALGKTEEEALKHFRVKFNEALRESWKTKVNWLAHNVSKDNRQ

PI3Kγ = target: T4, PI3Kγ (Homo sapiens, UniProt P48736); details: human recombinant PI3Kγ, ATP 30 μM; read-out: PI3K gamma inhibition
T4 construct: purchased Millipore Ltd (Billerica, Mass.)
T4 sequence (P48736 whole entry): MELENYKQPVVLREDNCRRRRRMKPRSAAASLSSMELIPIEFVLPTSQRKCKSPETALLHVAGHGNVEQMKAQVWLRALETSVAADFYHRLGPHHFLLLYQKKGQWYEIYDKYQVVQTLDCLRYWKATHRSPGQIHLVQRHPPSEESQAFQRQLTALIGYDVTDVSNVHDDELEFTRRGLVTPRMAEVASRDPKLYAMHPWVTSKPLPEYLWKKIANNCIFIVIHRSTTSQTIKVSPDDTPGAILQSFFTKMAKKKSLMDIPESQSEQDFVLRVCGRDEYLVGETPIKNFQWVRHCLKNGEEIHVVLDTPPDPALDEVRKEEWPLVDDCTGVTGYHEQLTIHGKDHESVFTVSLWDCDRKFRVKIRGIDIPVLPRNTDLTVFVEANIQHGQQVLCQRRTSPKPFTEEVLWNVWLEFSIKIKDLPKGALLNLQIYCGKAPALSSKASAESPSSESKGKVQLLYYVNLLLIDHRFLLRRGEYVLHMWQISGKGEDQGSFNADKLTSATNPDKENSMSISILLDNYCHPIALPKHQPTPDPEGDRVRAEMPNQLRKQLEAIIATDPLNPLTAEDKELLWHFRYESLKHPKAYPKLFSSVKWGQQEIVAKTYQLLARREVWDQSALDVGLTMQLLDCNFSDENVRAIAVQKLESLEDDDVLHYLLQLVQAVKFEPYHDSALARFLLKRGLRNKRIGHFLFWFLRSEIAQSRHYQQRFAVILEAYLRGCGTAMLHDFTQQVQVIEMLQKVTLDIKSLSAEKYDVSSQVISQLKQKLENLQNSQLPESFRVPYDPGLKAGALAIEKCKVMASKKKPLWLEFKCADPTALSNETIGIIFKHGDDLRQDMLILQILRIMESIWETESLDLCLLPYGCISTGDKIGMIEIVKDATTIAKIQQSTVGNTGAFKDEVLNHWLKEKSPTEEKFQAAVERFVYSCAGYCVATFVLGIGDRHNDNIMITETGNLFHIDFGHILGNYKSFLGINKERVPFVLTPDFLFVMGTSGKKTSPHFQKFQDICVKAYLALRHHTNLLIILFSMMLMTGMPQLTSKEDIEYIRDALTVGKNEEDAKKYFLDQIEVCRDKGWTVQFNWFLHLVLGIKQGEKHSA

T2 sequence (P42338 whole entry): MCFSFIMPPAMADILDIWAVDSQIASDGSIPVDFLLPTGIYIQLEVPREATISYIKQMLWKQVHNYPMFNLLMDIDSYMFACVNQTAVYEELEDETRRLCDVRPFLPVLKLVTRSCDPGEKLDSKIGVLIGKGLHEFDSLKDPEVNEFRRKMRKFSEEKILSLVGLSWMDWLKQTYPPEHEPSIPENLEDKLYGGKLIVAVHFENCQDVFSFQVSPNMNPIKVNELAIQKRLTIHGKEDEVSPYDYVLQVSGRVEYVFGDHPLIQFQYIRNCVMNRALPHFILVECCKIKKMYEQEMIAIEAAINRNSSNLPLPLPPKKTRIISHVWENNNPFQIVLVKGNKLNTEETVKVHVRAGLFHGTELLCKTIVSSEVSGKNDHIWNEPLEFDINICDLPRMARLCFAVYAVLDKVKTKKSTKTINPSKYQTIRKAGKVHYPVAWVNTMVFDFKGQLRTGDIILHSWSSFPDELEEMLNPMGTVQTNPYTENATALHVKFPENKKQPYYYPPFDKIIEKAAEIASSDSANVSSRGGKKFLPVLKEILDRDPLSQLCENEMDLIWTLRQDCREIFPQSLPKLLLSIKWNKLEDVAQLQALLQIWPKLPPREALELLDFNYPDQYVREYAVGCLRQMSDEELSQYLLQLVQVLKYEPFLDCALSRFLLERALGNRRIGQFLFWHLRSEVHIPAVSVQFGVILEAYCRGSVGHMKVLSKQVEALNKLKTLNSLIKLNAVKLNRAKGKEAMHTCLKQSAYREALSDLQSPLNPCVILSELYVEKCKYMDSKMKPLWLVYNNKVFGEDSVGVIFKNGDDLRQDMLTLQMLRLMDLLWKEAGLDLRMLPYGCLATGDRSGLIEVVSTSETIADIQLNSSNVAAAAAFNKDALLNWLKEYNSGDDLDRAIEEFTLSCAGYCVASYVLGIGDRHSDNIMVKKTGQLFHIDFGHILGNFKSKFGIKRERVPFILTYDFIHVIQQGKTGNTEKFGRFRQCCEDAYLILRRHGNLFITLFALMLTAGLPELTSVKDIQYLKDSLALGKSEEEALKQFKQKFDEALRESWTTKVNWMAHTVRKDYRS
T1 sequence (P42336 whole entry): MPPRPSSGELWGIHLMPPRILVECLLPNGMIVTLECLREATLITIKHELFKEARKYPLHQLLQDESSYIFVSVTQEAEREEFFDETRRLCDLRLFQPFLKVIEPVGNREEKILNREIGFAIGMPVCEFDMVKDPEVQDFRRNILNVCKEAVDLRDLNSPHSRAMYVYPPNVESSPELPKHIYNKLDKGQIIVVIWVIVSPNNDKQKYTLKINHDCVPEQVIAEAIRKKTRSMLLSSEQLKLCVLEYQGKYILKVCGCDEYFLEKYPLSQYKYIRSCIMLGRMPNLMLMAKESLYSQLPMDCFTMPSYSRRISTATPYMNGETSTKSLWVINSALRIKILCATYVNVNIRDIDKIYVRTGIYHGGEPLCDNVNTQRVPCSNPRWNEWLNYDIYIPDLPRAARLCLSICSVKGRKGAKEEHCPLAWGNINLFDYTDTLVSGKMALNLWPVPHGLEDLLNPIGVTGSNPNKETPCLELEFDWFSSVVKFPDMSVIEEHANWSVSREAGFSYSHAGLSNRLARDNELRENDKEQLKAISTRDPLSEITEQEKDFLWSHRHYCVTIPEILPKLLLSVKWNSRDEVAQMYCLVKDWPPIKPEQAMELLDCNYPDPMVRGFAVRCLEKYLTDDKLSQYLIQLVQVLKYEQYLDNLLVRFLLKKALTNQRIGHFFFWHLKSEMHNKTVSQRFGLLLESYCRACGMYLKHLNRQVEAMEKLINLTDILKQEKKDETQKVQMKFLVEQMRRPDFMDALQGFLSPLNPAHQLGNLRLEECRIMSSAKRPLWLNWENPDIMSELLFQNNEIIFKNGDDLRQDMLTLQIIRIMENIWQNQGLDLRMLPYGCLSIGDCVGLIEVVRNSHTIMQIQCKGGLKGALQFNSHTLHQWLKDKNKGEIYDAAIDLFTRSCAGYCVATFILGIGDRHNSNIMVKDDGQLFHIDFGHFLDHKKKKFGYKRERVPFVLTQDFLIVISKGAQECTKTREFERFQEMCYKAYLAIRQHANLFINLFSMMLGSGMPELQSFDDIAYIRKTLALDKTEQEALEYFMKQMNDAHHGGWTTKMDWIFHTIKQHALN

| SMILES | IC50 (PI3Kα) | IC50 (PI3Kβ) | IC50 (PI3Kδ) | IC50 (PI3Kγ) |
| --- | --- | --- | --- | --- |
| CC(c1oc(=O)c2ccccc2c1-c1ccc(CN2CCOCC2)s1)n1nc(-c2cc(O)cc(F)c2)c2c(N)ncnc21 (single isomer, unassigned) [Example 49a, 3-(1-(4-amino-3-(3-fluoro-5-hydroxyphenyl)-1H-pyrazolo[3,4-d]pyrimidin-1-yl)ethyl)-4-(5-(morpholinomethyl)thiophen-2-yl)-1H-isochromen-1-one hydrochloride] | 10 to 1000 nM | 10 to 1000 nM | < 10 nM | 10 to 1000 nM |
| CC(c1oc(=O)c2ccccc2c1-c1ccc(CN2CCCCC2)s1)n1nc(-c2cc(O)cc(F)c2)c2c(N)ncnc21 (single isomer, unassigned) [Example 68b, 3-(1-(4-amino-3-(3-fluoro-5-hydroxyphenyl)-1H-pyrazolo[3,4-d]pyrimidin-1-yl)ethyl)-4-(5-(piperidin-1-ylmethyl)thiophen-2-yl)-1H-isochromen-1-one hydrochloride single enantiomers] | 10 to 1000 nM | 10 to 1000 nM | < 10 nM | 10 to 1000 nM |
| CC(c1oc(=O)c2ccccc2c1-c1ccc(CN2CCN(CCO)CC2)s1)n1nc(-c2cc(O)cc(F)c2)c2c(N)ncnc21 (single isomer, unassigned) [Example 76b, 3-(1-(4-amino-3-(3-fluoro-5-hydroxyphenyl)-1H-pyrazolo[3,4-d]pyrimidin-1-yl)ethyl)-4-(5-((4-(2-hydroxyethyl)piperazin-1-yl)methyl)thiophen-2-yl)-1H-isochromen-1-one hydrochloride] | 10 to 1000 nM | 10 to 1000 nM | < 10 nM | 10 to 1000 nM |
| CC(c1oc(=O)c2ccccc2c1-c1cccc(CCCN(C)C)c1)n1nc(-c2cc(O)cc(F)c2)c2c(N)ncnc21 (single isomer, unassigned) [Example 137b, 3-(1-(4-amino-3-(3-fluoro-5-hydroxyphenyl)-1H-pyrazolo[3,4-d]pyrimidin-1-yl)ethyl)-4-(3-(3-(dimethylamino)propyl)phenyl)-1H-isochromen-1-one single enantiomers] | > 1000 nM | 10 to 1000 nM | < 10 nM | 10 to 1000 nM |
| CC(c1oc(=O)c2ccccc2c1-c1ccc(CCCN(C)C)cc1)n1nc(-c2cc(O)cc(F)c2)c2c(N)ncnc21 (single isomer, unassigned) [Example 138b, 3-(1-(4-amino-3-(3-fluoro-5-hydroxyphenyl)-1H-pyrazolo[3,4-d]pyrimidin-1-yl)ethyl)-4-(4-(3-(dimethylamino)propyl)phenyl)-1H-isochromen-1-one single enantiomers] | > 1000 nM | > 1000 nM | < 10 nM | 10 to 1000 nM |
| CC(c1oc(=O)c2ccccc2c1-c1cncs1)n1nc(-c2cc(O)cc(F)c2)c2c(N)ncnc21 (single isomer, unassigned) [Example 167a, 3-(1-(4-amino-3-(3-fluoro-5-hydroxyphenyl)-1H-pyrazolo[3,4-d]pyrimidin-1-yl)ethyl)-4-(thiazol-5-yl)-1H-isochromen-1-one single enantiomer] | 10 to 1000 nM | 10 to 1000 nM | < 10 nM | 10 to 1000 nM |
| CC(c1oc(=O)c2ccccc2c1-c1cncs1)n1nc(-c2cc(O)cc(F)c2)c2c(N)ncnc21 (single isomer, unassigned) [Example 167b, 3-(1-(4-amino-3-(3-fluoro-5-hydroxyphenyl)-1H-pyrazolo[3,4-d]pyrimidin-1-yl)ethyl)-4-(thiazol-5-yl)-1H-isochromen-1-one single enantiomer] | > 1000 nM | 10 to 1000 nM | < 10 nM | 10 to 1000 nM |
| CC(c1oc(=O)c2ccccc2c1C1=CCCN(Cc2ccccc2)C1)n1nc(-c2cc(O)cc(F)c2)c2c(N)ncnc21 (single isomer, unassigned) [Example 169b, 3-(1-(4-amino-3-(3-fluoro-5-hydroxyphenyl)-1H-pyrazolo[3,4-d]pyrimidin-1-yl)ethyl)-4-(1-benzyl-1,2,5,6-tetrahydropyridin-3-yl)-1H-isochromen-1-one hydrochloride single enantiomers] | > 1000 nM | 10 to 1000 nM | – | – |
| O=c1oc(CNc2ncnc3[nH]cnc23)c(-c2ccccc2)c2ccccc12 [Example 29, 3-((9H-Purin-6-ylamino)methyl)-4-phenyl-1H-isochromen-1-one] | > 1000 nM | – | – | 10 to 1000 nM |
| Cc1cccc(-c2c(C(C)n3nc(-c4cn[nH]c4)c4c(N)ncnc43)oc(=O)c3ccccc23)c1 (centres unmarked) [Example 42, 3-(1-(4-Amino-3-(1H-pyrazol-4-yl)-1H-pyrazolo[3,4-d]pyrimidin-1-yl)ethyl)-4-m-tolyl-1H-isochromen-1-one] | > 1000 nM | – | < 10 nM | 10 to 1000 nM |
| CC(c1oc(=O)c2ccccc2c1-c1ccccc1)n1nc(-c2cncc(NS(=O)(=O)c3ccc(F)cc3)c2)c2c(N)ncnc21 (centres unmarked) [Example 87, N-(5-(4-amino-1-(1-(1-oxo-4-phenyl-1H-isochromen-3-yl)ethyl)-1H-pyrazolo[3,4-d]pyrimidin-3-yl)pyridin-3-yl)-4-fluorobenzenesulfonamide] | 10 to 1000 nM | – | 10 to 1000 nM | 10 to 1000 nM |
| CC(c1oc(=O)c2ccccc2c1-c1ccccc1)n1nc(-c2cc[nH]n2)c2c(N)ncnc21 (centres unmarked) [Example 111, 3-(1-(4-amino-3-(1H-pyrazol-3-yl)-1H-pyrazolo[3,4-d]pyrimidin-1-yl)ethyl)-4-phenyl-1H-isochromen-1-one] | > 1000 nM | – | 10 to 1000 nM | 10 to 1000 nM |
| CC(c1oc(=O)c2ccccc2c1C#CCN(C)C)n1nc(-c2cc(O)cc(F)c2)c2c(N)ncnc21 (centres unmarked) [Example 158, 3-(1-(4-amino-3-(3-fluoro-5-hydroxyphenyl)-1H-pyrazolo[3,4-d]pyrimidin-1-yl)ethyl)-4-(3-(dimethylamino)prop-1-yn-1-yl)-1H-isochromen-1-one hydrochloride] | 10 to 1000 nM | 10 to 1000 nM | 10 to 1000 nM | – |
| Cc1c(O)cncc1-c1nn(C(C)c2oc(=O)c3ccccc3c2-c2ccccc2)c2ncnc(N)c12 (centres unmarked) [Example 159, 3-(1-(4-amino-3-(5-hydroxy-4-methylpyridin-3-yl)-1H-pyrazolo[3,4-d]pyrimidin-1-yl)ethyl)-4-phenyl-1H-isochromen-1-one] | – | > 1000 nM | 10 to 1000 nM | 10 to 1000 nM |
| Cc1ncc(O)cc1-c1nn(C(C)c2oc(=O)c3ccccc3c2-c2ccccc2)c2ncnc(N)c12 (centres unmarked) [Example 160, 3-(1-(4-amino-3-(5-hydroxy-2-methylpyridin-3-yl)-1H-pyrazolo[3,4-d]pyrimidin-1-yl)ethyl)-4-phenyl-1H-isochromen-1-one] | – | 10 to 1000 nM | < 10 nM | 10 to 1000 nM |
| Cc1ccc2c(-c3ccccc3)c(C(C)n3nc(-c4cc(O)cc(F)c4)c4c(N)ncnc43)oc(=O)c2c1 (centres unmarked) [Example 162, 3-(1-(4-amino-3-(3-fluoro-5-hydroxyphenyl)-1H-pyrazolo[3,4-d]pyrimidin-1-yl)ethyl)-7-methyl-4-phenyl-1H-isochromen-1-one] | > 1000 nM | – | 10 to 1000 nM | 10 to 1000 nM |
| Nc1ncnc2c1c(I)nn2Cc1oc(=O)c2ccccc2c1-c1ccccc1 [Int D1, 3-((4-Amino-3-iodo-1H-pyrazolo[3,4-d]pyrimidin-1-yl)methyl)-4-phenyl-1H-isochromen-1-one] | – | > 1000 nM | 10 to 1000 nM | 10 to 1000 nM |
